Reference: US6340694B1, “Diarylbenzopyran derivatives as cyclooxygenase-2 inhibitors” (Pacific Corporation, priority 1998, dated 2002)

What was measured:
COX-2 = molecular target: T1, COX-2 (Mus musculus, UniProt Q05769); test: Evaluation of COX-2's inhibition efficacy (PGE2 radioimmuno assay, LPS-induced, aspirin-pretreated peritoneal macrophages); type: cell-based, C57BL/6 mouse; settings: for inhibition at 1 µg/mL: 1 μg/ml; for inhibition at 10 µg/mL: 10 μg/ml; for inhibition at 0.1 µg/mL: 0.1 μg/ml
T1 construct: endogenous in cells; host or cells: peritoneal macrophages of C57BL/6 mouse, aspirin-pretreated, LPS-induced
T1 sequence (Q05769 18-604): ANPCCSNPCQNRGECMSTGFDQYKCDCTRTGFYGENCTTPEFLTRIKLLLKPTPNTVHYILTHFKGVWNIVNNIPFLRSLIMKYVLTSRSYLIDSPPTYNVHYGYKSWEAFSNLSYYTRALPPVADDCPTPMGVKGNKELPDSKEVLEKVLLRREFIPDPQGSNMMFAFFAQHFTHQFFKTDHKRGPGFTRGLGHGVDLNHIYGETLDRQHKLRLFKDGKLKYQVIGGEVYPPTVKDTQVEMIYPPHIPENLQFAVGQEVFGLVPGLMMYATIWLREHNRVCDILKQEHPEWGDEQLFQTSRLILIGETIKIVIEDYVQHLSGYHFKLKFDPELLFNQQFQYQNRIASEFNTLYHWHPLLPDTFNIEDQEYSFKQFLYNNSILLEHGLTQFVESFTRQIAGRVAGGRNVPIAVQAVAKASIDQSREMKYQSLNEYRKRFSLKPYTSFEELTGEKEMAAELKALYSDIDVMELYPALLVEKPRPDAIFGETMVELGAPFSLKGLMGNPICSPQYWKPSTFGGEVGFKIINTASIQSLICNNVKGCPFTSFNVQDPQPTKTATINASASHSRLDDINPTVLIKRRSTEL
Method: Regarding the compounds in the above Examples and indomethacin, the inhibition efficacy of COX-2 and COX-1 are being measured by the following two methods. […] Evaluation of COX-2's Inhibition Efficacy (J. Pharmacol. Exp. […] After cleaning C57BL/6 mouse's abdomen by 70% EtOH, the skin of mouse's abdomen was eliminated cautiously not to harm peritomeum and 5 ml of cold PBS was poured into the abdominal cavity and in certain times later macrophage-bleeding abdominal-liquid was collected by syringe. […] After putting 1 ml cell suspension having cell number of 1×10^6 cells/mu into each 24-well microtiter plates, macrophages were adhered to the bottom of plate by culturing in the condition of 5% CO2/95% O2, at a temperature of 37° C. for 2 hours. Other cells not being adhered to were eliminated by washing two times with PBS. The purity of macrophages obtained through this process was identified by differential counting. […] After inducing COX-2 by LPS, the cell culture medium was eliminated and macrophages was washed two times with PBS. And 1 ml of RRPI-1640 badge was added to each well again and after treating them with sample with appropriate concentration, they were cultured at a temperature of 37i É for 10 minutes. And then treated them with arachidonic acid to make their final concentration as 10 μM and cultured them additional 10 minutes, all the supernatant liquid of reaction was obtained. The amount of PGE2 produced in the supernatant liquid of reaction was determined by the PGE2 radioimmuno assay.

COX-1 = molecular target: T2, COX-1 (Mus musculus, UniProt P22437); test: Evaluation of COX-1's inhibition efficacy (macrophages without aspirin and LPS pre-treatment); type: cell-based, C57BL/6 mouse; settings: for inhibition at 10 µg/mL: 10 μg/ml; for inhibition at 1 µg/mL: 1 μg/ml
T2 construct: there is no pre-treatment of aspirin and LPS in the adhesion of macrophage; endogenous in cells; host or cells: peritoneal macrophages of C57BL/6 mouse, without aspirin and LPS pre-treatment
T2 sequence (P22437 27-602): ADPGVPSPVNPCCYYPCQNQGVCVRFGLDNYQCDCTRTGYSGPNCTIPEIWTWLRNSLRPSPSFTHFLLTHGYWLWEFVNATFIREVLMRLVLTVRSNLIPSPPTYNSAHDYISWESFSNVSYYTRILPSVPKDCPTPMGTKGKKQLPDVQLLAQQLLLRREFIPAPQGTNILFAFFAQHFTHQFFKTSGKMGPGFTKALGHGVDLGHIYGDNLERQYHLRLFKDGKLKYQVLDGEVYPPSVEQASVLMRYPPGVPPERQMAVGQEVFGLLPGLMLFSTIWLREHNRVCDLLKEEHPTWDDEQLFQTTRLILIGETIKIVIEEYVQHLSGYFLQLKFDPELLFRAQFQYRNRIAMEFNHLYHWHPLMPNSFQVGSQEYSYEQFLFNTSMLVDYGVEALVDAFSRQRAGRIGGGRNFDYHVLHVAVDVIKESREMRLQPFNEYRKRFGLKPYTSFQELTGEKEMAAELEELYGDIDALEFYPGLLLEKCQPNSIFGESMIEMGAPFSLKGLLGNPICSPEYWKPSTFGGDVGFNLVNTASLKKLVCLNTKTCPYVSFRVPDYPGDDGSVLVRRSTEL
Method: Regarding the compounds in the above Examples and indomethacin, the inhibition efficacy of COX-2 and COX-1 are being measured by the following two methods.
After cleaning C57BL/6 mouse's abdomen by 70% EtOH, the skin of mouse's abdomen was eliminated cautiously not to harm peritomeum and 5 ml of cold PBS was poured into the abdominal cavity and in certain times later macrophage-bleeding abdominal-liquid was collected by syringe. By adding RPMI-1640 badge containing penicillin(100 unit/mt) and streptomycin([…]) to cell pellet obtained by centrifugation of collected liquid about 5 minutes in 1500 rpm, it was disperesed and also COX-1 existing in the cell was inactivated by treating with 500 μM aspirin. After putting 1 ml cell suspension having cell number of 1×10^6 cells/mu into each 24-well microtiter plates, macrophages were adhered to the bottom of plate by culturing in the condition of 5% CO2/95% O2, at a temperature of 37° C. for 2 hours. Other cells not being adhered to were eliminated by washing two times with PBS. The purity of macrophages obtained through this process was identified by differential counting. After adding RPMI-1640 badge(normally 5×10^5 cell/ml) containing 3% right fetal blood serum to macrophage and treating it with LPS(lipopolysaccharide) to make final concentration as 10 μg/ml, it was cultured in the condition of 5% CO2, at a temperature of 37° C. for 16 hours. After inducing COX-2 by LPS, the cell culture medium was eliminated and macrophages was washed two times with PBS. And 1 ml of RRPI-1640 badge was added to each well again and after treating them with sample with appropriate concentration, they were cultured at a temperature of 37i É for 10 minutes. And then treated them with arachidonic acid to make their final concentration as 10 μM and cultured them additional 10 minutes, all the supernatant liquid of reaction was obtained. The amount of PGE2 produced in the supernatant liquid of reaction was determined by the PGE2 radioimmuno assay. The 100% COX-2's activation is referenced by the difference of the amount of PGE2 produced in the supernatant liquid of reaction between with 10 μM arachidonic acid treatment and without 10 μM arachidonic acid treatment.
2. Evaluation of COX-1's Inhibition Efficacy
Following the same procedure as the above evaluation of COX-2's inhibition efficacy, but there is no pre-treatment of aspirin and LPS in the adhesion of macrophage.

| Structure (SMILES) | inhibition at 1 µg/mL (COX-2) [%] | inhibition at 10 µg/mL (COX-2) [%] | inhibition at 10 µg/mL (COX-1) [%] | melting point [°C] | inhibition at 0.1 µg/mL (COX-2) [%] | inhibition at 1 µg/mL (COX-1) [%] |
| --- | --- | --- | --- | --- | --- | --- |
| NS(=O)(=O)c1ccc(-c2oc3ccc(F)cc3c(=O)c2-c2ccc(F)cc2)cc1 [Example 48, 2-(4-(Aminosulfonyl)phenyl)-6-fluoro-3-(4-fluorophenyl)-4H-1-benzopyran-4-one] | 100 |  | 48 | 224 to 226 | 63 | 36 |
| NS(=O)(=O)c1ccc(-c2oc3ccc(F)cc3c(=O)c2-c2cccc(F)c2)cc1 [Example 51, 2-(4-(Aminosulfonyl)phenyl)-6-fluoro-3-(3-fluorophenyl)-4H-1-benzopyran-4-one] | 83 | 100 | 6 | 257 to 258 | 56 |  |
| NS(=O)(=O)c1ccc(-c2oc3ccccc3c(=O)c2-c2ccc(F)cc2)cc1 [Example 52, 2-(4-(Aminosulfonyl)phenyl)-3-(4-fluorophenyl)-4H-1-benzopyran-4-one] | 96 | 99 | 67 | 267 to 268 | 73 | 62 |
| COc1ccc(-c2c(-c3ccc(S(N)(=O)=O)cc3)oc3ccccc3c2=O)cc1 [Example 55, 2-(4-(Aminosulfonyl)phenyl)-3-(4-methoxyphenyl)-4H-1-benzopyran-4-one] | 90 | 100 | 84 | 252 to 254 |  | 66 |

Other lines, results leading:

| inhibition at 1 µg/mL (COX-2) [%] | inhibition at 10 µg/mL (COX-2) [%] | inhibition at 10 µg/mL (COX-1) [%] | melting point [°C] | inhibition at 0.1 µg/mL (COX-2) [%] | inhibition at 1 µg/mL (COX-1) [%] | Structure (SMILES) |
| --- | --- | --- | --- | --- | --- | --- |
| 51 | 86 | 18 | 226 to 227 |  |  | COc1ccc(-c2c(-c3ccc(S(C)(=O)=O)cc3)oc3ccccc3c2=O)cn1 [Example 18, 3-(2-Methoxy-5-pyridinyl)-2-(4-(methylsulfonyl)phenyl)-4H-1-benzopyran-4-one] |
| 18 | 35 | 11 | 197 to 199 |  |  | CS(=O)(=O)c1ccc(-c2oc3ccccc3c(=O)c2-c2cncc(Br)c2)cc1 [Example 19, 3-(5-Bromo-3-pyridinyl)-2-(4-(methylsulfonyl)phenyl)-4H-1-benzopyran-4-one] |
| < 5 | 85 | < 5 | 195 to 196 |  |  | Cc1ccc(-c2c(-c3ccc(S(C)(=O)=O)cc3)oc3ccccc3c2=O)cn1 [Example 20, 3-(2-Methyl-5-pyridinyl)-2-(4-(methylsulfonyl)phenyl)-4H-1-benzopyran-4-one] |
| 35 | 55 | < 5 | 215 to 217 |  |  | CS(=O)(=O)c1ccc(-c2oc3ccccc3c(=O)c2-c2ccc(C(F)(F)F)nc2)cc1 [Example 21, 2-(4-(Methylsulfonyl)phenyl)-3-(2-trifluoromethyl-5-pyridinyl)-4H-1-benzopyran-4-one] |
| 29 | 69 | < 5 | 196 to 198 | 6 |  | CS(=O)(=O)c1ccc(-c2oc3ccccc3c(=S)c2-c2cccc(Cl)c2)cc1 [Example 40, 3-(3-Chlorophenyl)-2-(4-(methylsulfonyl)phenyl)-4H-1-benzopyran-4-thione] |
| 36 | 96 | < 5 | 234 | < 5 |  | Cc1ccccc1-c1c(-c2ccc(S(C)(=O)=O)cc2)oc2ccccc2c1=S [Example 41, 3-(2-Methylphenyl)-2-(4-(methylsulfonyl)phenyl)-4H-1-benzopyran-4-thione] |
| 90 | 92 | 61 | 218 to 220 | 76 | 52 | NS(=O)(=O)c1ccc(-c2oc3ccccc3c(=O)c2-c2ccccc2)cc1 [Example 53, 2-(4-(Aminosulfonyl)phenyl)-3-phenyl-4H-1-benzopyran-4-one] |
